Results as given in PubChem BioAssay AID256 (DTP/NCI, 2004).
Values joined by “and” are separate entries in the source; they are usually repeats but may differ in a detail not shown here. Equal entries are not always repeated. Inconclusive results and toxic doses are left out.

System: CD2F1 mice, L1210 leukemia ip, survival T/C
Experiment: NCI In Vivo Anticancer Drug Screen. Data for tumor model L1210 Leukemia (intraperitoneal) in CD2F1 (CDF1) mice
Details: higher = longer survival
Summary of the method: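 Read-out first: treated-group measurement over vehicle-control measurement, expressed as a ratio. Animals bore a transplanted tumor line and were dosed with compound or vehicle.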

Q: Which T/C (endpoint: mean survival time, dose: 100.0 mg/kg/injection, schedule: Q01DX001 (ip), vehicle: Klucel (hydroxypropylcellulose) (HPC)) does the source give for `Clc1ccc(N=Cc2ccc3c(c2)OCO3)c(Cl)c1` here?
A: 100 % of control

Q: What about the T/C (endpoint: mean survival time, dose: 200.0 mg/kg/injection, schedule: Q01DX001 (ip), vehicle: Klucel (hydroxypropylcellulose) (HPC)) of the same molecule?
A: 96 % of control

Q: What about the T/C (endpoint: mean survival time, dose: 400.0 mg/kg/injection, schedule: Q01DX001 (ip), vehicle: Klucel (hydroxypropylcellulose) (HPC)) of the same molecule?
A: 97 % of control

Q: How did the T/C (endpoint: mean survival time, dose: 100.0 mg/kg/injection, schedule: Q01DX001 (ip), vehicle: saline with Tween-80) turn out when `CC(C)(C(O)c1ccccc1)[N+](=O)[O-]` (stereo not drawn) was run?
A: 105 % of control

Q: And the T/C (endpoint: mean survival time, dose: 100.0 mg/kg/injection, schedule: Q01DX009 (ip), vehicle: saline with Tween-80)?
A: 102 % of control

Q: And the T/C (endpoint: mean survival time, dose: 200.0 mg/kg/injection, schedule: Q01DX001 (ip), vehicle: saline with Tween-80)?
A: 102 % of control

Q: What about the T/C (endpoint: mean survival time, dose: 200.0 mg/kg/injection, schedule: Q01DX009 (ip), vehicle: saline with Tween-80) of the same molecule?
A: 95 % of control

Q: What about the T/C (endpoint: mean survival time, dose: 400.0 mg/kg/injection, schedule: Q01DX001 (ip), vehicle: saline with Tween-80) of the same molecule?
A: 98 % of control

Q: What about the T/C (endpoint: mean survival time, dose: 400.0 mg/kg/injection, schedule: Q01DX009 (ip), vehicle: saline with Tween-80) of the same molecule?
A: 96 % of control

Q: How did the T/C (endpoint: mean survival time, dose: 1.56 mg/kg/injection, schedule: Q04DX002 (ip), vehicle: saline with Tween-80) turn out when `O=C(O)CCC(=O)c1ccc2c(c1)CCCC2` was run?
A: 97 % of control

Q: And the T/C (endpoint: mean survival time, dose: 3.13 mg/kg/injection, schedule: Q04DX002 (ip), vehicle: saline with Tween-80)?
A: 97 % of control

Q: What about the T/C (endpoint: mean survival time, dose: 6.25 mg/kg/injection, schedule: Q04DX002 (ip), vehicle: saline with Tween-80) of the same molecule?
A: 97 % of control

Q: What about the T/C (endpoint: mean survival time, dose: 12.5 mg/kg/injection, schedule: Q04DX002 (ip), vehicle: saline with Tween-80) of the same molecule?
A: 104 % of control

Q: What does the source list for `O=C1[O][Hg][c]2cccc3cccc1c23`?
A: T/C (endpoint: mean survival time, dose: 2.5 mg/kg/injection, schedule: Q01DX009 (ip), vehicle: saline with Tween-80): 88 % of control; T/C (endpoint: mean survival time, dose: 5.0 mg/kg/injection, schedule: Q01DX009 (ip), vehicle: saline with Tween-80): 94 % of control; T/C (endpoint: mean survival time, dose: 10.0 mg/kg/injection, schedule: Q01DX009 (ip), vehicle: saline with Tween-80): 95 % of control

Q: What does the source list for `CCNc1ncc2ccccc2c1-c1ccc(N2CCN(CCCl)CC2)cc1`?
A: T/C (endpoint: mean survival time, dose: 25.0 mg/kg/injection, schedule: Q04DX003 (ip), vehicle: saline + alcohol): 111 % of control; T/C (endpoint: mean survival time, dose: 50.0 mg/kg/injection, schedule: Q04DX003 (ip), vehicle: saline + alcohol): 102 % of control; T/C (endpoint: mean survival time, dose: 100.0 mg/kg/injection, schedule: Q04DX003 (ip), vehicle: saline + alcohol): 102 % of control; T/C (endpoint: mean survival time, dose: 200.0 mg/kg/injection, schedule: Q04DX003 (ip), vehicle: saline + alcohol): 111 % of control

Q: For `CC[C@@]1(OC(=O)C(N)CCC(=O)O)C(=O)OCc2c1cc1n(c2=O)Cc2cc3ccccc3nc2-1` (stereo partly drawn), which T/C (endpoint: median survival time, dose: 6.85 mg/kg/injection, schedule: Q04DX002 (ip), vehicle: water) is on record?
A: 107 % of control and 108 % of control

Q: What about the T/C (endpoint: median survival time, dose: 10.27 mg/kg/injection, schedule: Q04HX004 (iv), vehicle: water) of the same molecule?
A: 120 % of control and 111 % of control

Q: And the T/C (endpoint: median survival time, dose: 13.69 mg/kg/injection, schedule: Q04DX002 (ip), vehicle: water)?
A: 113 % of control

Q: And the T/C (endpoint: median survival time, dose: 27.39 mg/kg/injection, schedule: Q04DX002 (ip), vehicle: water)?
A: 122 % of control

Q: And the T/C (endpoint: median survival time, dose: 41.08 mg/kg/injection, schedule: Q04HX004 (iv), vehicle: water)?
A: 184 % of control and 197 % of control

Q: And the T/C (endpoint: median survival time, dose: 54.78 mg/kg/injection, schedule: Q04DX002 (ip), vehicle: water)?
A: 154 % of control and 170 % of control

Q: What about the T/C (endpoint: median survival time, dose: 54.78 mg/kg/injection, schedule: Q04HX004 (iv), vehicle: water) of the same molecule?
A: 204 % of control and 211 % of control

Q: And the T/C (endpoint: median survival time, dose: 109.6 mg/kg/injection, schedule: Q04DX002 (ip), vehicle: water)?
A: 208 % of control

Q: With `O=C(O)CCCC1CCc2ccccc2C1` (stereo not drawn) as the molecule, how does the T/C (endpoint: mean survival time, dose: 100.0 mg/kg/injection, schedule: Q01DX009 (ip), vehicle: Klucel (hydroxypropylcellulose) (HPC)) read?
A: 96 % of control

Q: And the T/C (endpoint: mean survival time, dose: 200.0 mg/kg/injection, schedule: Q01DX009 (ip), vehicle: Klucel (hydroxypropylcellulose) (HPC))?
A: 102 % of control

Q: What about the T/C (endpoint: mean survival time, dose: 400.0 mg/kg/injection, schedule: Q01DX009 (ip), vehicle: Klucel (hydroxypropylcellulose) (HPC)) of the same molecule?
A: 97 % of control

Q: What does the source list for `COc1ccc2c(NCCCCCCNc3c4ccccc4nc4cc(OC)ccc34)c3ccccc3nc2c1`?
A: T/C (endpoint: mean survival time, dose: 0.07 mg/kg/injection, schedule: Q01DX009 (ip), vehicle: other): 102 % of control; T/C (endpoint: mean survival time, dose: 0.15 mg/kg/injection, schedule: Q01DX009 (ip), vehicle: other): 102 % of control; T/C (endpoint: mean survival time, dose: 0.16 mg/kg/injection, schedule: Q01DX009 (ip), vehicle: lactic acid): 124 % of control; T/C (endpoint: mean survival time, dose: 0.31 mg/kg/injection, schedule: Q01DX009 (ip), vehicle: lactic acid): 110 % of control; T/C (endpoint: mean survival time, dose: 0.31 mg/kg/injection, schedule: Q01DX009 (ip), vehicle: other): 105 % of control; T/C (endpoint: mean survival time, dose: 0.62 mg/kg/injection, schedule: Q01DX009 (ip), vehicle: lactic acid): 113 % of control; T/C (endpoint: mean survival time, dose: 0.63 mg/kg/injection, schedule: Q01DX009 (ip), vehicle: other): 100 % of control; T/C (endpoint: mean survival time, dose: 1.25 mg/kg/injection, schedule: Q01DX009 (ip), vehicle: lactic acid): 121 % of control and 122 % of control; T/C (endpoint: mean survival time, dose: 1.25 mg/kg/injection, schedule: Q01DX009 (ip), vehicle: other): 107 % of control; T/C (endpoint: mean survival time, dose: 2.5 mg/kg/injection, schedule: Q01DX009 (ip), vehicle: lactic acid): 122 % of control; T/C (endpoint: mean survival time, dose: 5.0 mg/kg/injection, schedule: Q01DX009 (ip), vehicle: lactic acid): 116 % of control; T/C (endpoint: mean survival time, dose: 10.0 mg/kg/injection, schedule: Q01DX009 (ip), vehicle: lactic acid): 122 % of control
